Patent US12344597B2, “Alkoxy-substituted pyridinyl derivatives as LPA1 receptor antagonists and their use in the treatment of fibrosis” (IDORSIA PHARMACEUTICALS LTD, priority 2018, dated 2025)

target: human LPA1 receptor (Homo sapiens (Human), UniProt Q92633); experiment: Beta-arrestin recruitment assay to determine IC50 values for human LPAR1; format: cell-based; conditions: antagonist mode, Tango EDG2-bla U2OS cells, LPA 18:1 500 nM final
How it was run: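 Antagonist IC50 = concentration giving 50% inhibition of maximal LPA response. Read-out is beta-lactamase reporter activity after arrestin-protease recruitment in U2OS cells bearing LPA1-TEV-Gal4-VP16 construct; cells pre-incubated 20 h, 37 °C, 5% CO2.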

Sequence of human LPA1 receptor (Q92633 whole entry, the tested form may be a part): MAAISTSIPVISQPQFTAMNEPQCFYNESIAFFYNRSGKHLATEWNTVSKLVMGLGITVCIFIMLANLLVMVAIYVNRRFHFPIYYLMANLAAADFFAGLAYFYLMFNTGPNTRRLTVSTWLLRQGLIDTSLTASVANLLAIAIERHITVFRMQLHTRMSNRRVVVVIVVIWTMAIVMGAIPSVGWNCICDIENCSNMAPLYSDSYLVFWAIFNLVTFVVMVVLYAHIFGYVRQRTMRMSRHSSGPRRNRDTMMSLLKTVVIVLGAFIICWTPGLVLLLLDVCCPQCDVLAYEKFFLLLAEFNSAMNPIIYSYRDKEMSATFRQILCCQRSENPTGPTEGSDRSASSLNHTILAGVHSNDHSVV

Point of comparison: Cc1ccc(NC(=O)C2(c3ccccc3C(C)C)CN(C(=O)OC3(C(=O)O)CC3)C2)c(OC(F)F)n1 [Ex 14-8, 1-((3-((2-(difluoromethoxy)-6-methylpyridin-3-yl)carbamoyl)-3-(2-isopropylphenyl)azetidine-1-carbonyl)oxy)cyclopropane-1-carboxylic acid], IC50 14 nM. Against it:
- Cc1ccc(NC(=O)C2(c3ccccc3C(C)C)CN(C(=O)C3C[C@H](O)CN3)C2)c(OC(F)F)n1 (stereo partly drawn) [Ex 12-41, N-(2-(difluoromethoxy)-6-methylpyridin-3-yl)-1-((4S)-4-hydroxypyrrolidine-2-carbonyl)-3-(2-isopropylphenyl)azetidine-3-carboxamide] — 4.9-fold higher, 69 nM
- Cc1ccc(NC(=O)C2(c3ccccc3C(C)C)CN(CCC(C)(C)C(N)=O)C2)c(OC(F)F)n1 [Ex 11-93, 1-(4-amino-3,3-dimethyl-4-oxobutyl)-N-(2-(difluoromethoxy)-6-methylpyridin-3-yl)-3-(2-isopropylphenyl)azetidine-3-carboxamide] — 4.6-fold higher, 65 nM
- Cc1cnc(NC(=O)C2(c3ccccc3C(C)C)CN(C3=NC(=O)CO3)C2)c(OC(F)F)c1 [Ex 84, N-(3-(difluoromethoxy)-5-methylpyridin-2-yl)-3-(2-isopropylphenyl)-1-(4-oxo-4,5-dihydrooxazol-2-yl)azetidine-3-carboxamide] — 22-fold higher, 310 nM
- Cc1ccc(NC(=O)C2(c3ccccc3C(C)C)CN(C(=O)CN3CCC(C(=O)O)CC3)C2)c(OC(F)F)n1 [Ex 48, 1-(2-(3-((2-(difluoromethoxy)-6-methylpyridin-3-yl)carbamoyl)-3-(2-isopropylphenyl)azetidin-1-yl)-2-oxoethyl)piperidine-4-carboxylic acid] — 7.4-fold higher, 103 nM
- Cc1ccc(NC(=O)C2(c3ccccc3C(C)C)CN(C(=O)CC(C)C(=O)O)C2)c(OC(F)F)n1 (centres unmarked) [Ex 12-78, 4-(3-((2-(difluoromethoxy)-6-methylpyridin-3-yl)carbamoyl)-3-(2-isopropylphenyl)azetidin-1-yl)-2-methyl-4-oxobutanoic acid] — 1.9-fold higher, 27 nM
- Cc1ccc(NC(=O)C2(c3ccccc3C(C)C)CN(C(=O)C(C)(C)CC(=O)O)C2)c(OC(F)F)n1 [Ex 12-91, 4-(3-((2-(difluoromethoxy)-6-methylpyridin-3-yl)carbamoyl)-3-(2-isopropylphenyl)azetidin-1-yl)-3,3-dimethyl-4-oxobutanoic acid] — 2.8-fold lower, 5 nM
- CC(=O)NS(=O)(=O)N1CC(C(=O)Nc2ccc(C)nc2OC(F)F)(c2ccccc2C(C)C)C1 [Ex 16-1, 1-(N-acetylsulfamoyl)-N-(2-(difluoromethoxy)-6-methylpyridin-3-yl)-3-(2-isopropylphenyl)azetidine-3-carboxamide] — 4.9-fold higher, 69 nM
- Cc1ccc(NC(=O)C2(c3ccccc3C(C)C)CN(Cc3cc(C(=O)O)no3)C2)c(OC(F)F)n1 [Ex 11-35, 5-((3-((2-(difluoromethoxy)-6-methylpyridin-3-yl)carbamoyl)-3-(2-isopropylphenyl)azetidin-1-yl)methyl)isoxazole-3-carboxylic acid] — 3.1-fold higher, 43 nM
- Cc1ccc(NC(=O)C2(c3ccccc3C(C)C)CN(c3cnc(C4(C(=O)O)CC4)nc3)C2)c(OC(F)F)n1 [Ex 18-17, 1-(5-(3-((2-(difluoromethoxy)-6-methylpyridin-3-yl)carbamoyl)-3-(2-isopropylphenyl)azetidin-1-yl)pyrimidin-2-yl)cyclopropane-1-carboxylic acid] — 1.8-fold lower, 8 nM
- Cc1ccc(NC(=O)C2(c3ccccc3C(C)C)CN(S(=O)(=O)CC(=O)O)C2)c(OC(F)F)n1 [Ex 13-1, 2-((3-((2-(difluoromethoxy)-6-methylpyridin-3-yl)carbamoyl)-3-(2-isopropylphenyl)azetidin-1-yl)sulfonyl)acetic acid] — 2-fold lower, 7 nM
- Cc1ccc(NC(=O)C2(c3ccccc3C(C)C)CN(Cc3coc(C)n3)C2)c(OC(F)F)n1 [Ex 11-21, N-(2-(difluoromethoxy)-6-methylpyridin-3-yl)-3-(2-isopropylphenyl)-1-((2-methyloxazol-4-yl)methyl)azetidine-3-carboxamide] — 4.3-fold higher, 60 nM
- CC(C)c1ccccc1C1(C(=O)Nc2ncc(Br)cc2OC(F)F)CN(S(N)(=O)=O)C1 [Ex 81-4, N-(5-bromo-3-(difluoromethoxy)pyridin-2-yl)-3-(2-isopropylphenyl)-1-sulfamoylazetidine-3-carboxamide] — 7-fold lower, 2 nM
- CCOC(=O)CNCCN1CC(C(=O)Nc2ccc(C)nc2OC(F)F)(c2ccccc2C(C)C)C1 [Ex 11-79, Ethyl (2-(3-((2-(difluoromethoxy)-6-methylpyridin-3-yl)carbamoyl)-3-(2-isopropylphenyl)azetidin-1-yl)ethyl)glycinate] — within 1.5-fold, 19 nM
- Cc1ccc(NC(=O)C2(c3ccccc3C(C)C)CN(c3ccnc(C)n3)C2)c(OC(F)F)n1 [Ex 18-34, N-(2-(difluoromethoxy)-6-methylpyridin-3-yl)-3-(2-isopropylphenyl)-1-(2-methylpyrimidin-4-yl)azetidine-3-carboxamide] — 4.7-fold lower, 3 nM
- Cc1ccc(NC(=O)C2(c3ccccc3C(C)C)CN(C(=O)[C@H](CO)NC(=O)OC(C)(C)C)C2)c(OC(F)F)n1 [Ex 12-39, tert-butyl (S)-(1-(3-((2-(difluoromethoxy)-6-methylpyridin-3-yl)carbamoyl)-3-(2-isopropylphenyl)azetidin-1-yl)-3-hydroxy-1-oxopropan-2-yl)carbamate] — 34-fold higher, 481 nM
- (R)-2-amino-5-(3-((2-(difluoromethoxy)-6-methylpyridin-3-yl)carbamoyl)-3-(2-isopropylphenyl)azetidin-1-yl)-5-oxopentanoic acid [Ex 49] — 3.1-fold higher, 44 nM
- CCOC(=O)C[C@H](N)C(=O)N1CC(C(=O)Nc2ccc(C)nc2OC(F)F)(c2ccccc2C(C)C)C1 [Ex 12-100, ethyl (S)-3-amino-4-(3-((2-(difluoromethoxy)-6-methylpyridin-3-yl)carbamoyl)-3-(2-isopropylphenyl)azetidin-1-yl)-4-oxobutanoate] — 1.6-fold higher, 23 nM
- Cc1ccc(NC(=O)C2(c3ccccc3C3CCC3)CNC2)c(OC(F)F)n1 [Ex 24, 3-(2-cyclobutylphenyl)-N-(2-(difluoromethoxy)-6-methylpyridin-3-yl)azetidine-3-carboxamide] — 2.2-fold higher, 31 nM
- Cc1ccc(NC(=O)C2(c3ccccc3C(C)C)CN(Cc3ncco3)C2)c(OC(F)F)n1 [Ex 11-47, N-(2-(difluoromethoxy)-6-methylpyridin-3-yl)-3-(2-isopropylphenyl)-1-(oxazol-2-ylmethyl)azetidine-3-carboxamide] — 2.9-fold higher, 41 nM
- Cc1ccc(NC(=O)C2(c3ccccc3C3CCOCC3)CN(S(N)(=O)=O)C2)c(OC(F)F)n1 [Ex 30, N-(2-(difluoromethoxy)-6-methylpyridin-3-yl)-1-sulfamoyl-3-(2-(tetrahydro-2H-pyran-4-yl)phenyl)azetidine-3-carboxamide] — 2.4-fold higher, 33 nM
- COC(=O)CCCCS(=O)(=O)N1CC(C(=O)Nc2ccc(C)nc2OC(F)F)(c2ccccc2C(C)C)C1 [Ex 13-18, methyl 5-((3-((2-(difluoromethoxy)-6-methylpyridin-3-yl)carbamoyl)-3-(2-isopropylphenyl)azetidin-1-yl)sulfonyl)pentanoate] — 5.1-fold higher, 72 nM
- Cc1ccc(NC(=O)C2(c3ccccc3C(C)C)CN(C[C@@H](O)CN(C)C)C2)c(OC(F)F)n1 [Ex 11-85, (S)-N-(2-(difluoromethoxy)-6-methylpyridin-3-yl)-1-(3-(dimethylamino)-2-hydroxypropyl)-3-(2-isopropylphenyl)azetidine-3-carboxamide] — 14-fold higher, 191 nM
